Measurements reported in the NIST ThermoML archive (doi:10.1016/j.jct.2013.10.013).
± gives the expanded uncertainty stated by the source.

Key:
[1] = 283.15 K; 101 kPa; Liquid; Vibrating tube method
[2] = xn = mol fraction of the nth substance listed; settings: 101 kPa, Liquid, Vibrating tube method

O [water]
Settings | mass density [kg/m3]
[1] | 999.699 ± 0.2

O [water] + CC(C)COCCO
Settings | mass density [kg/m3]
[2], 283.15 K, x2 = 0 | 999.699 ± 0.2

O [water] + CC(C)NCCO
Settings | mass density [kg/m3]
[2], 283.15 K, x2 = 0 | 999.699 ± 0.2

O [water] + CCCCOCCO
Settings | mass density [kg/m3]
[2], 283.15 K, x2 = 0 | 999.699 ± 0.2

CC(C)COCCO [2-(2-methylpropoxy)ethanol] + O
mass density [kg/m3], [2]
Settings | x1 = 0.000617 | x1 = 0.001164 | x1 = 0.001812 | x1 = 0.00198 | x1 = 0.003969 | x1 = 0.006759 | x1 = 0.009969 | x1 = 0.01319
283.15 K | 999.515 ± 0.2 | 999.412 ± 0.2 | 999.296 ± 0.2 | 999.307 ± 0.2 | 999.013 ± 0.2 | 998.702 ± 0.2 | 998.438 ± 0.2 | 998.199 ± 0.2
288.15 K | 998.897 ± 0.2 | 998.784 ± 0.2 | 998.655 ± 0.2 | 998.645 ± 0.2 | 998.299 ± 0.2 | 997.897 ± 0.2 | 997.523 ± 0.2 | 997.151 ± 0.2
293.15 K | 998.017 ± 0.2 | 997.888 ± 0.2 | 997.743 ± 0.2 | 997.724 ± 0.2 | 997.322 ± 0.2 | 996.836 ± 0.2 | 996.347 ± 0.2 | 995.851 ± 0.2
298.15 K | 996.846 ± 0.2 | 996.707 ± 0.2 | 996.548 ± 0.2 | 996.506 ± 0.2 | 996.06 ± 0.2 | 995.497 ± 0.2 | 994.904 ± 0.2 | 994.282 ± 0.2
303.15 K | 995.459 ± 0.2 | 995.292 ± 0.2 | 995.136 ± 0.2 | 995.092 ± 0.2 | 994.592 ± 0.2 | 993.958 ± 0.2 | 993.254 ± 0.2 | 992.505 ± 0.2

CCCCOCCO [2-butoxyethan-1-ol] + O
mass density [kg/m3], [2]
Settings | x1 = 0.000906 | x1 = 0.001283 | x1 = 0.001685 | x1 = 0.001942 | x1 = 0.003834 | x1 = 0.006957 | x1 = 0.009993 | x1 = 0.01324
283.15 K | 999.515 ± 0.2 | 999.44 ± 0.2 | 999.376 ± 0.2 | 999.379 ± 0.2 | 999.137 ± 0.2 | 998.855 ± 0.2 | 998.677 ± 0.2 | 998.516 ± 0.2
288.15 K | 998.873 ± 0.2 | 998.804 ± 0.2 | 998.733 ± 0.2 | 998.742 ± 0.2 | 998.449 ± 0.2 | 998.058 ± 0.2 | 997.764 ± 0.2 | 997.453 ± 0.2
293.15 K | 997.98 ± 0.2 | 997.897 ± 0.2 | 997.814 ± 0.2 | 997.774 ± 0.2 | 997.436 ± 0.2 | 996.956 ± 0.2 | 996.553 ± 0.2 | 996.129 ± 0.2
298.15 K | 996.815 ± 0.2 | 996.726 ± 0.2 | 996.633 ± 0.2 | 996.592 ± 0.2 | 996.204 ± 0.2 | 995.629 ± 0.2 | 995.12 ± 0.2 | 994.56 ± 0.2
303.15 K | 995.386 ± 0.2 | 995.295 ± 0.2 | 995.201 ± 0.2 | 995.143 ± 0.2 | 994.715 ± 0.2 | 994.053 ± 0.2 | 993.447 ± 0.2 | 992.75 ± 0.2
